Test results published in US10197557B2, “Small molecules for endothelial cell activation” (The Regents of the University of California, priority 2011, dated 2019).
Entries after “also recorded” stand apart in the source; their conditions may differ.

How the values were obtained:
human endothelial cells = test: EC-PBMC co-culture assay, chemokines quantified by cytometric bead arrays; assay type: cell-based; conditions: for EC activation of octahydro-1,6-naphthyridin-4-one analogs (percent induction relative to IFNγ): focused library of 96 analogs, initial test (FIG. 6A, 6B)
Procedure: FIGS. 9A-9C show a further embodiment of the invention biological platform for the detection of activated endothelium. (A) Primary endothelial cells were seeded to confluence in a 96 well format and activated by IFNγ (10 ng/ml). After 5 hours, IFNγ was removed, wells were washed, and then primary human peripheral blood mononuclear cells (PBMC) were added at a ratio of 3:1 (PBMC:EC). 20-24 hours later, supernatants were removed and chemokines were quantified by cytometric bead arrays. (B) MIP1β production, but not MIP1α or IL8 levels, reliably detects endothelium activated by IFNγ. Chemokines produced in co-culture conditions with quiescent vs. activated EC; data represent the results from n=7 (MIP1α and MIP1β) and n=6 (IL8) independent experiments. (C) Chemical library screen for compounds that activate human endothelium. A 642 compound library was added following the same method as in A and B. Controls included DMSO and IFNγ on each plate. Supernatants were measured for chemokines by cytometric bead arrays.
Activation of the endothelium is intricately linked to innate immunity. […] Therefore we hypothesized that compounds that “activate” the endothelium could be identified indirectly—endothelium encountering activating compounds would gain the capacity to trigger chemokine production by monocytes. To test this hypothesis, we designed an EC-monocyte co-culture system amenable to high-throughput compound screening (FIG. 9A). […] Subsequently, EC were treated with DMSO (vehicle control), IFNγ (EC-activation control), and a collection of 642 compounds (final concentration, […]) (FIG. 9C). Of the 642 compounds, 37 (5.8%) promoted MIP1β production (FIG. 5A).
HUVEC were grown to 80-90% confluency in T150 flasks (Corning). On the day of experiments, HUVEC were harvested and plated at a confluent density in 96 well plates; these were either half or full volume plates, requiring 2.5-5×10^4 EC per well, respectively, in complete EBM-2 media (Lonza). After adherence for 2-3 hours, IFNγ (10 ng/ml), DMSO, or compound library (final concentration, […]) was added in incomplete EBM-2 media (Lonza). After 5 hours, stimuli were removed and cells were gently washed twice with RPMI (Invitrogen), followed by addition of 7.5-10×10^4 human PBMC in 10% FCS. For cytokine analysis, […] was removed at 24 hours for CBA analysis. The biological effects observed were not attributable to either LPS contamination, nor to cellular toxicity, as determined by flow cytometric analysis and 3-(4,5-dimethylhiazol-2-yl)-2,5-diphenyl tetrazolium bromide (MTT) assay.
[…] of supernatant from EC alone, PBMC alone, or co-culture conditions was collected for CBA analysis for IL8, MIP1α, and MIP1β. CBA was performed as per the manufacturer's recommendations (Becton Dickinson). Standard curves and all samples were acquired on a FacsCalibur flow cytometer and data was analyzed using FloJo software.

E-selectin = E-selectin expression on EC by flow cytometric analysis; assay type: cell-based, human; conditions: in comparison to vehicle control (FIG. 8C)
Procedure: (§1) HUVEC were stimulated with IFNγ, DMSO, or compounds of interest (10 μM) for 5 hours. Stimuli were removed and cells were gently washed and media was replaced with 10% FCS for 24 hours. Cells were stained with anti-ICAM1 and anti-E-selectin, or appropriate isotype antibodies. For intracellular chemokine staining, stimulations of HUVEC were carried out as mentioned above with IFNγ, DMSO and compound of interest. After 8 hours of PBMC and HUVEC co-culture incubation, Golgi Plug (Becton Dickinson) was added to the culture and incubation carried out for an additional 16 hours. After the incubation cells were fixed, permeabilized and stained with anti-CD14 and anti-MIP1b or appropriate isotype controls. Samples were then analyzed with a FacsCalibur flow cytometer and subsequent data analysis was performed using FloJo software.

HUVEC = test: Transcriptome profiling (microarray) of treated EC, Ingenuity Pathway Analysis; assay type: cell-based, human; conditions: 10 μM, 5 hours; for gene probes induced in comparison to vehicle control: fold change >1.25, p-value <0.05
Procedure: HUVEC were grown as described above, and then plated at 1×10^6 in 6 well plates in complete EBM-2. […] After 5 hours, media was removed and RNA was extracted using Trizol (Invitrogen), followed by RNeasy Minelut Cleanup Kit (Qiagen). RNA was taken to the UCLA Microarray Core Center where it was processed using the Human Genome Affymetrix U133 Plus 2.0 Array. Microarray data was analyzed using dChip software (version Nov. 18, 2007) from the Cheng Li Lab at http://biosun1.harvard.edu/complab/dchip. For statistical analysis using dChip software, only gene probes that were minimally present in two of the three replicates were used, and parameters for significance were set at fold change >1.25, p-value <0.05. Total number of probes present for active analogue (D10): 30,228. […] Unsupervised dendrograms were created using dChip software. Genes with known function in immune regulation were selected based on published databases and gene functions identified by Gene Ontology or OMIM; dendrogram was created using dChip software.
Experimental results were compared using student t-tests; results were considered significant if p-value was <0.05. Canonical network analysis for all expressed probes in D10 and E2 datasets was performed by using Ingenuity Pathway Analysis software (version 6.0; Ingenuity Systems).

MIP1β = test: Intracellular flow cytometry of EC-PBMC co-cultures (CD14, MIP1β); assay type: cell-based, human; conditions: PBMC added to activated EC (FIG. 5D)
Procedure: as §1

For `Cc1ccc(S(=O)(=O)N2[C@H](c3ccccc3)CC(=O)[C@@H]3CN(S(C)(=O)=O)[C@H](c4ccccc4)C[C@@H]32)cc1` [2B2], the “EC activation of octahydro-1,6-naphthyridin-4-one analogs (percent induction relative to IFNγ)” value (human endothelial cells) was “lost their activity; also recorded: inactive”.
`Cc1ccc(S(=O)(=O)N2C[C@H]3[C@@H](O)C[C@@H](c4ccccc4)N(S(=O)(=O)c4ccc(C)cc4)[C@H]3C[C@H]2c2cccc(Cl)c2)cc1` [2B6] was tested, and the “EC activation of octahydro-1,6-naphthyridin-4-one analogs (percent induction relative to IFNγ)” value (human endothelial cells) was “active”.
In the case of `CCO[C@H]1C[C@@H](c2ccccc2)N(S(=O)(=O)c2ccc(C)cc2)[C@H]2C[C@@H](c3cccc(Cl)c3)N(S(=O)(=O)c3ccc(C)cc3)C[C@@H]12` [2B7], the “EC activation of octahydro-1,6-naphthyridin-4-one analogs (percent induction relative to IFNγ)” value (human endothelial cells) is reported as “active”.
In the case of `Cc1ccc([C@@H]2C[C@H]3[C@@H](CN2S(=O)(=O)c2ccccc2)C(=O)C[C@@H](c2ccccc2)N3S(=O)(=O)c2ccc(C)cc2)cc1` [C8], the “EC activation of octahydro-1,6-naphthyridin-4-one analogs (percent induction relative to IFNγ)” value (human endothelial cells) is reported as “active”.
For `COc1ccc([C@@H]2C[C@H]3[C@@H](CN2S(=O)(=O)c2ccccc2)C(=O)C[C@@H](c2ccc(C)cc2)N3S(=O)(=O)c2ccc(C)cc2)cc1` [C9], the “EC activation of octahydro-1,6-naphthyridin-4-one analogs (percent induction relative to IFNγ)” value (human endothelial cells) was “active”.
In the case of `COc1ccc([C@@H]2CC(=O)[C@@H]3CN(S(=O)(=O)c4ccc(C)cc4)[C@H](c4ccccc4)C[C@@H]3N2S(=O)(=O)c2ccccc2)cc1` [D5], the “EC activation of octahydro-1,6-naphthyridin-4-one analogs (percent induction relative to IFNγ)” value (human endothelial cells) is reported as “did not exhibit EC-activation; also recorded: inactive”.
With `Cc1ccc([C@@H]2C[C@H]3[C@@H](CN2S(=O)(=O)c2ccc(C)cc2)C(=O)C[C@@H](c2ccc(C)cc2)N3S(=O)(=O)c2ccc(C)cc2)cc1` [D6] the “EC activation of octahydro-1,6-naphthyridin-4-one analogs (percent induction relative to IFNγ)” value (human endothelial cells) was “active”.
For `COc1ccc([C@@H]2CC(=O)[C@@H]3CN(S(=O)(=O)c4ccc(C)cc4)[C@H](c4ccc(C)cc4)C[C@@H]3N2S(=O)(=O)c2ccccc2)cc1` [D9], the “EC activation of octahydro-1,6-naphthyridin-4-one analogs (percent induction relative to IFNγ)” value (human endothelial cells) was “did not exhibit EC-activation; also recorded: inactive”.
For `CCc1ccc([C@@H]2C[C@H]3[C@@H](CN2S(=O)(=O)c2ccc(C)cc2)C(=O)C[C@@H](c2ccc(CC)cc2)N3S(=O)(=O)c2ccc(C)cc2)cc1` [D10], the “EC activation of octahydro-1,6-naphthyridin-4-one analogs (percent induction relative to IFNγ)” value (human endothelial cells) was “active”, the “E-selectin expression levels (protein)” value (E-selectin) was “markedly enhanced” and the “gene probes induced in comparison to vehicle control” value (HUVEC; EC) was 201 gene probes. For the same molecule, the “canonical pathways engaged (Ingenuity Pathway Analysis)” value (HUVEC; induced genes of EC) was 32 canonical pathways and the E-selectin gene induction (HUVEC; microarray, EC) was “uniquely induced”.
In the case of `CCc1ccc([C@@H]2C[C@H]3[C@@H](CN2S(=O)(=O)c2ccc(C)cc2)C(=O)C[C@@H](c2ccc(Cl)cc2)N3S(=O)(=O)c2ccc(C)cc2)cc1` [D11], the “EC activation of octahydro-1,6-naphthyridin-4-one analogs (percent induction relative to IFNγ)” value (human endothelial cells) is reported as “active”.
For `CCc1ccc([C@@H]2C[C@H]3[C@@H](CN2S(=O)(=O)c2ccc(C)cc2)C(=O)C[C@@H](c2ccc(OC)cc2)N3S(=O)(=O)c2ccccc2)cc1` [E2], the “EC activation of octahydro-1,6-naphthyridin-4-one analogs (percent induction relative to IFNγ)” value (human endothelial cells) was “some activity; also recorded: inactive”, the “EC activation, confirmatory studies” value (human endothelial cells; validation of analogs, FIG. 6C, two independent experiments in triplicate wells) was “relatively inactive” and the “gene probes induced in comparison to vehicle control” value (HUVEC; EC) was 49 gene probes. For the same molecule, the “networks related to immune regulation activated” value (HUVEC; induced genes of EC) was “did not activate any networks related to immune regulation”.
In the case of `Cc1ccc(S(=O)(=O)N2C[C@H]3C(=O)C[C@@H](c4ccccc4)N(S(=O)(=O)c4ccc(C)cc4)[C@H]3C[C@H]2c2ccccc2F)cc1` [E3], the “EC activation of octahydro-1,6-naphthyridin-4-one analogs (percent induction relative to IFNγ)” value (human endothelial cells) is reported as “active”.
`COc1ccc([C@@H]2CC(=O)[C@@H]3CN(S(=O)(=O)c4ccc(C)cc4)[C@H](c4ccccc4F)C[C@@H]3N2S(=O)(=O)c2ccccc2)cc1` [E8] was tested, and the “EC activation of octahydro-1,6-naphthyridin-4-one analogs (percent induction relative to IFNγ)” value (human endothelial cells) was “did not exhibit EC-activation; also recorded: inactive”.
`COc1ccc([C@@H]2CC(=O)[C@@H]3CN(S(=O)(=O)c4ccc(Cl)cc4)[C@H](c4ccc(C)cc4)C[C@@H]3N2S(=O)(=O)c2ccccc2)cc1` [F7] was tested, and the “EC activation of octahydro-1,6-naphthyridin-4-one analogs (percent induction relative to IFNγ)” value (human endothelial cells) was “did not exhibit EC-activation; also recorded: inactive”.
For `COc1ccc([C@@H]2C[C@H]3[C@@H](CN2S(=O)(=O)c2ccccc2)C(=O)C[C@@H](c2ccc(OC)cc2)N3S(=O)(=O)c2ccccc2)cc1` [F10], the “EC activation of octahydro-1,6-naphthyridin-4-one analogs (percent induction relative to IFNγ)” value (human endothelial cells) was “did not exhibit EC-activation; also recorded: inactive”.
With `CCOc1cc(-c2ccccc2)nc2c1CN(S(=O)(=O)c1ccc(C)cc1)[C@H](c1cccc(Cl)c1)C2` [G9] the “EC activation of octahydro-1,6-naphthyridin-4-one analogs (percent induction relative to IFNγ)” value (human endothelial cells) was “inactive”.
With `Cc1ccc(S(=O)(=O)N2CC[C@H]3[C@@H](C2)C(=O)C[C@@H](c2ccccc2)N3S(=O)(=O)c2ccc(C)cc2)cc1` [H6] the “EC activation of octahydro-1,6-naphthyridin-4-one analogs (percent induction relative to IFNγ)” value (human endothelial cells) was “did not affect the naphthyridinone's EC-activation; also recorded: active”.
With `Cc1ccc(S(=O)(=O)N2C[C@H]3C(=O)C[C@@H](c4ccccc4)N(S(C)(=O)=O)[C@H]3C[C@H]2c2ccccc2)cc1` [H11] the “EC activation of octahydro-1,6-naphthyridin-4-one analogs (percent induction relative to IFNγ)” value (human endothelial cells) was “lost their activity; also recorded: inactive”.
interferon gamma [IFNγ] was tested, and the “MIP1α production in co-culture” value (human endothelial cells; treated EC co-cultured with PBMC (FIG. 10B)) was “comparable levels”, the “IL8 production from monocytes in co-culture” value (human endothelial cells; treated EC co-cultured with PBMC, in comparison to DMSO (FIG. 10A)) was “inhibited” and the “dominant producers of MIP1β in co-culture” value (MIP1β) was “CD14+ monocytes”.
